In patent US20250230147A1, “LACTAMS AS CBL-B INHIBITORS” (Genentech, Inc., priority 2021, published 2025):
Counter-ions that a name gives are not always drawn.

Key:
Cbl-b = Cbl-b (Homo sapiens (Human), UniProt Q13191); test: Cbl-b LCK Ub TR-FRET assay (Cbl-b Lck HTRF); assay type: biochemical
Experimental: Compounds were 3-fold serially diluted in DMSO in a 384-well polypropylene plate (#P-05525-BC; Labcyte) to generate a source plate with 10 concentrations of each compound, top concentration=2 mM. 80 nL of DMSO or compounds were transferred to each well of a black 384-well ProxiPlate (#6008260; PerkinElmer) using a Labcyte Echo. 1×assay buffer (50 mM HEPES pH7.0, 100 mM NaCl, 0.01% BSA, 0.01% Triton-X100, 1 mM DTT), 2×enzyme solution (16 nM Biotin-Cbl-b or 12 nM Biotin-c-Cbl in 1× assay buffer), 2×kinase mixture (120 nM His-LCK, 1 mM ATP, 10 mM MgCl2 in assay buffer) and 2.33×detection mixture (4.66×solution 1: 163 nM Anti-HA-D2 antibody (#610HADAB; PerkinElmer), 27.96 nM Streptavidin-EU (#AD0062; PerkinElmer), 1.398 mM EDTA in 1×assay buffer+4.66×solution 2: 2.796 μM UBE2D2/Methylated-HA-Ubiquitin thioester adduct (BostonBiochem) in 1×assay buffer) were prepared. 4 μL of 2× enzyme solution was added to each well containing compound, briefly centrifuged to mix, and incubated for 60 min at room temperature. 4 μL of 2× kinase mixture was added, briefly centrifuged to mix, and incubated for 90 min. at room temperature. 6 μL of detection mixture was added to all wells and briefly centrifuged before incubating for 20 min at room temperature. Plates were read for TR-FRET using an Envision at excitation 340 nm, emission at 615 and 665 nm, 4 flashes per well. IC50 was generated using no LCK as the low control and DMSO as the high control.
Cbl-b Lck HTRF data in Table 7 is measured according to Example 76 herein; C-cbl Lck HTRF data is measured according to Example 76 herein.

c-Cbl = c-Cbl (Homo sapiens (Human), UniProt P22681); test: C-Cbl LCK Ub TR-FRET assay (c-cbl Lck HTRF); assay type: biochemical; conditions: for (fold-selectivity): C-cbl Lck HTRF IC50 relative to Cbl-b Lck HTRF IC50
Experimental: 6 μL of detection mixture was added to all wells and briefly centrifuged before incubating for 20 min at room temperature. […] IC50 was generated using no LCK as the low control and DMSO as the high control.

Chain of c-Cbl (P22681 47-435): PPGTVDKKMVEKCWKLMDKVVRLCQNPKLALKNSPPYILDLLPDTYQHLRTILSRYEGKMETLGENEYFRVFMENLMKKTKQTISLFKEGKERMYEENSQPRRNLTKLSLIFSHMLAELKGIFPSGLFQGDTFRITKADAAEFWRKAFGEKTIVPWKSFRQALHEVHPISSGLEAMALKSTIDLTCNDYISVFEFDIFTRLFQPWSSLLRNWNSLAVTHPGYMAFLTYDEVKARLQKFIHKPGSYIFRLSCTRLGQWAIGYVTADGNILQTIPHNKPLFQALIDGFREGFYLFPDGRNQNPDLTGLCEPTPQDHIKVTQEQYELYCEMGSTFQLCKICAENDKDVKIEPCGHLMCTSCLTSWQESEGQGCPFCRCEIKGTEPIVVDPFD
Chain of Cbl-b (Q13191 40-426): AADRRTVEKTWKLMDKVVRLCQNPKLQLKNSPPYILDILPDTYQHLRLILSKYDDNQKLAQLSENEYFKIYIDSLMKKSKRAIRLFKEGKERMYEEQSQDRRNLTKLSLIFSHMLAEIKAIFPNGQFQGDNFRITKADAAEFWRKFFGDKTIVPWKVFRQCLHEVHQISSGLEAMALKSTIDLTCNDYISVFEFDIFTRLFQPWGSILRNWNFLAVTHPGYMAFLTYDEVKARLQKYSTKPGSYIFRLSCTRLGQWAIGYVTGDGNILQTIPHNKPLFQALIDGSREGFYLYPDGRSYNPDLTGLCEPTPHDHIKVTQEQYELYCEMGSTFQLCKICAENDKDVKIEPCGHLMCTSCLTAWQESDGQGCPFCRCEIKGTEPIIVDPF

| IC50 (Cbl-b) | IC50 (c-Cbl) | (fold-selectivity) (c-Cbl) | SMILES |
| --- | --- | --- | --- |
| 34 nM | 63 nM | 1.9x | Cn1cnnc1[C@H](F)C1(c2cccc(N3Cc4c(cc([C@@H](N)C5CC5)cc4C(F)(F)F)C3=O)c2)COC1 [Compound 53, 6-((S)-amino(cyclopropyl)methyl)-2-(3-(3-((R)-fluoro(4-methyl-4H-1,2,4-triazol-3-yl)methyl)oxetan-3-yl)phenyl)-4-(trifluoromethyl)isoindolin-1-one] |
| 29 nM | 46 nM | 1.6x | Cn1cnnc1[C@H](F)C1(c2cccc(N3Cc4c(cc([C@H](N)C5CC5)cc4C(F)(F)F)C3=O)c2)COC1 [Compound 54, 6-((R)-amino(cyclopropyl)methyl)-2-(3-(3-((R)-fluoro(4-methyl-4H-1,2,4-triazol-3-yl)methyl)oxetan-3-yl)phenyl)-4-(trifluoromethyl)isoindolin-1-one] |
| 49 nM | 67 nM | 1.4x | Cn1cnnc1[C@H](F)C1(c2cccc(N3Cc4c(cc(CC5CNC5)cc4C(F)(F)F)C3=O)c2)COC1 [Compound 57, (R)-6-(azetidin-3-ylmethyl)-2-(3-(3-(fluoro(4-methyl-4H-1,2,4-triazol-3-yl)methyl)oxetan-3-yl)phenyl)-4-(trifluoromethyl)isoindolin-1-one] |
| 200 nM | 360 nM | 1.8x | Cn1cnnc1[C@@H](F)C1(c2cccc(N3Cc4c(cc(CC5CNC5)cc4C(F)(F)F)C3=O)c2)COC1 [Compound 58, (S)-6-(azetidin-3-ylmethyl)-2-(3-(3-(fluoro(4-methyl-4H-1,2,4-triazol-3-yl)methyl)oxetan-3-yl)phenyl)-4-(trifluoromethyl)isoindolin-1-one] |
| 590 nM | 1300 nM | 2.1x | Cn1cnnc1[C@H](F)C1(c2cccc(N3Cc4c(cccc4C(F)F)C3=O)c2)COC1 [Compound 59, (R)-4-(difluoromethyl)-2-(3-(3-(fluoro(4-methyl-4H-1,2,4-triazol-3-yl)methyl)oxetan-3-yl)phenyl)isoindolin-1-one] |
| 210 nM | 340 nM | 1.6x | Cn1cnnc1[C@@H](F)C1(c2cccc(N3Cc4c(cc(CN)cc4C(F)(F)F)C3=O)c2)COC1 [Compound 69, (S)-6-(aminomethyl)-2-(3-(3-(fluoro(4-methyl-4H-1,2,4-triazol-3-yl)methyl)oxetan-3-yl)phenyl)-4-(trifluoromethyl)isoindolin-1-one] |
| 240 nM | 400 nM | 1.7x | Cn1cnnc1[C@@H](F)C1(c2cccc(N3Cc4c(cc(CN5CCC5)cc4C(F)(F)F)C3=O)c2)COC1 [Compound 71, (S)-6-(azetidin-1-ylmethyl)-2-(3-(3-(fluoro(4-methyl-4H-1,2,4-triazol-3-yl)methyl)oxetan-3-yl)phenyl)-4-(trifluoromethyl)isoindolin-1-one] |
| 55 nM | 110 nM | 2.1x | Cn1cnnc1[C@H](F)C1(c2cccc(N3Cc4c(cc(CN5CC(C)(C)C5)cc4C(F)(F)F)C3=O)c2)COC1 [Compound 72, (R)-6-((3,3-dimethylazetidin-1-yl)methyl)-2-(3-(3-(fluoro(4-methyl-4H-1,2,4-triazol-3-yl)methyl)oxetan-3-yl)phenyl)-4-(trifluoromethyl)isoindolin-1-one] |
| 140 nM | 300 nM | 2.2x | Cn1cnnc1[C@@H](F)C1(c2cccc(N3Cc4c(cc(CN5CC(C)(C)C5)cc4C(F)(F)F)C3=O)c2)COC1 [Compound 73, (S)-6-((3,3-dimethylazetidin-1-yl)methyl)-2-(3-(3-(fluoro(4-methyl-4H-1,2,4-triazol-3-yl)methyl)oxetan-3-yl)phenyl)-4-(trifluoromethyl)isoindolin-1-one] |
| 250 nM | 580 nM | 2.3x | Cn1cnnc1[C@@H](F)C1(c2cccc(N3Cc4c(cc(CN5CC(C)(CO)C5)cc4C(F)(F)F)C3=O)c2)COC1 [Compound 75, (S)-2-(3-(3-(fluoro(4-methyl-4H-1,2,4-triazol-3-yl)methyl)oxetan-3-yl)phenyl)-6((3-(hydroxymethyl)-3-methylazetidin-1-yl)methyl)-4-(trifluoromethyl)isoindolin-1-one] |
| 52 nM | 82 nM | 1.6x | Cn1cnnc1[C@H](F)C1(c2cccc(N3Cc4c(cc(CN5CC(C)(CF)C5)cc4C(F)(F)F)C3=O)c2)COC1 [Compound 76, (R)-2-(3-(3-(fluoro(4-methyl-4H-1,2,4-triazol-3-yl)methyl)oxetan-3-yl)phenyl)-6-((3-(fluoromethyl)-3-methylazetidin-1-yl)methyl)-4-(trifluoromethyl)isoindolin-1-one] |
| 210 nM | 370 nM | 1.8x | Cn1cnnc1[C@@H](F)C1(c2cccc(N3Cc4c(cc(CN5CC(C)(CF)C5)cc4C(F)(F)F)C3=O)c2)COC1 [Compound 77, (S)-2-(3-(3-(fluoro(4-methyl-4H-1,2,4-triazol-3-yl)methyl)oxetan-3-yl)phenyl)-6-((3-(fluoromethyl)-3-methylazetidin-1-yl)methyl)-4-(trifluoromethyl)isoindolin-1-one] |
| 53 nM | 79 nM | 1.5x | Cn1cnnc1[C@H](F)C1(c2cccc(N3Cc4c(cc(CN5CC6(CC6)C5)cc4C(F)(F)F)C3=O)c2)COC1 [Compound 78, (R)-6-((5-azaspiro[2.3]hexan-5-yl)methyl)-2-(3-(3-(fluoro(4-methyl-4H-1,2,4-triazol-3-yl)methyl)oxetan-3-yl)phenyl)-4-(trifluoromethyl)isoindolin-1-one] |
| 170 nM | 270 nM | 1.6x | Cn1cnnc1[C@@H](F)C1(c2cccc(N3Cc4c(cc(CN5CC6(CC6)C5)cc4C(F)(F)F)C3=O)c2)COC1 [Compound 79] |
| 110 nM | 290 nM | 2.6x | Cn1cnnc1[C@H](F)C1(c2cccc(N3Cc4c(cc(CN5CC[C@@H](F)C5)cc4C(F)(F)F)C3=O)c2)COC1 [Compound 80, 2-(3-(3-((R)-fluoro(4-methyl-4H-1,2,4-triazol-3-yl)methyl)oxetan-3-yl)phenyl)-6-(((R)-3-fluoropyrrolidin-1-yl)methyl)-4-(trifluoromethyl)isoindolin-1-one] |
| 270 nM | 750 nM | 2.8x | Cn1cnnc1[C@@H](F)C1(c2cccc(N3Cc4c(cc(CN5CC[C@@H](F)C5)cc4C(F)(F)F)C3=O)c2)COC1 [Compound 81, 2-(3-(3-((S)-fluoro(4-methyl-4H-1,2,4-triazol-3-yl)methyl)oxetan-3-yl)phenyl)-6-(((R)-3-fluoropyrrolidin-1-yl)methyl)-4-(trifluoromethyl)isoindolin-1-one] |
| 28 nM | 68 nM | 2.4x | Cn1cnnc1[C@H](F)C1(c2cccc(N3Cc4c(cc(CN5CC[C@H](F)C5)cc4C(F)(F)F)C3=O)c2)COC1 [Compound 82, 2-(3-(3-((R)-fluoro(4-methyl-4H-1,2,4-triazol-3-yl)methyl)oxetan-3-yl)phenyl)-6-(((S)-3-fluoropyrrolidin-1-yl)methyl)-4-(trifluoromethyl)isoindolin-1-one] |

| SMILES | IC50 (Cbl-b) | IC50 (c-Cbl) | (fold-selectivity) (c-Cbl) |
| --- | --- | --- | --- |
| CC(C)Nc1cc([C@H](C)Cc2nncn2C)cc(N2Cc3c(cc(CN4CCC5(CC5)C4)cc3C(F)(F)F)C2=O)n1.O=CO [Compound 55, (R)-6-((5-azaspiro[2.4]heptan-5-yl)methyl)-2-(6-(isopropylamino)-4-(1-(4-methyl-4H-1,2,4-triazol-3-yl)propan-2-yl)pyridin-2-yl)-4-(trifluoromethyl)isoindolin-1-one formate] | 16 nM | 26 nM | 1.6x |
| CCOc1cc([C@H](C)Cc2nncn2C)cc(N2Cc3c(cc(CN4CCC5(CC5)C4)cc3C(F)(F)F)C2=O)n1 [Compound 56, (R)-6-((5-azaspiro[2.4]heptan-5-yl)methyl)-2-(6-ethoxy-4-(1-(4-methyl-4H-1,2,4-triazol-3-yl)propan-2-yl)pyridin-2-yl)-4-(trifluoromethyl)isoindolin-1-one formate] | 16 nM | 22 nM |  |
| Cn1cnnc1CC1(c2cccc(N3Cc4c(cc(CN)cc4C(F)(F)F)C3=O)c2)COC1 [Compound 66, 6-(aminomethyl)-2-(3-(3-((4-methyl-4H-1,2,4-triazol-3-yl)methyl)oxetan-3-yl)phenyl)-4-(trifluoromethyl)isoindolin-1-one formate] | 76 nM | 100 nM |  |
